Results on three compounds are retold here after PubChem BioAssay (NCI).

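These data come from cells grown in 96-well plates and exposed to compound for 48 hours at five concentrations. GI50 marks 50% less growth. Definition used: TGI = concentration required for complete inhibition of growth.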

Common to all, as to assay: NCI anticancer screen, dose series, 48 h
The test system of assay [1] is BT-549 breast.
Assay [2] deals with CAKI-1 renal.
Assay [3] deals with CCRF-CEM leukemia.
Assay [4] relates to HL-60(TB) leukemia.
The subject of assay [5] is HOP-92 NSCLC.
For assay [6], the system named is K-562 leukemia.
For assay [7], the system named is NCI-H23 lung.
The subject of assay [8] is NCI-H522 lung.
In assay [9] the test system is NCI/ADR-RES ovarian.
In assay [10] the test system is SNB-75 CNS.

`OCCCCC#Cc1ccccc1C#Cc1ccccc1F`: the GI50 in assay [1] was 21.7 µM; in assay [2], 24.2 µM; in [3], 24600 nM; in assay [4], 22.2 µM; in assay [5], 22 µM; in [6], 23200 nM. Also, the GI50 in assay [7] is 20.2 µM; in assay [8], 16.3 µM; in assay [9] it was 21.1 µM; in assay [10] it was more than 100 µM. Besides, the TGI was 52.7 µM in assay [1]; 51.4 µM in assay [2]; 48.7 µM in [3]; 44.9 µM in assay [4]; 64.2 µM in assay [5]; 47.2 µM in assay [6]. The TGI in [7] was 43.1 µM; in assay [8], 32.6 µM; in assay [9], 46.7 µM; in [10] it was more than 100 µM.
Take `CCCCCCCCCCCCCCCC(=O)OCC1OC(n2cnc3c(=S)nc(N)[nH]c32)C(OC(=O)CCCCCCCCCCCCCCC)C1OC(=O)CCCCCCCCCCCCCCC` (stereo not given): the GI50 in assay [1] is more than 50 µM; in assay [2] it was 1.05 µM; in assay [3], 1850 nM; in assay [4], more than 35.6 µM; in assay [5], 3.85 µM; in [6], 2050 nM. In addition, the GI50 was 12.9 µM in assay [7], 4.82 µM in [8], 4.46 µM in assay [9] and 4.38 µM in assay [10]. The TGI was more than 50 µM in [1]; more than 14.8 µM in [2]; more than 50 µM in assay [3]; more than 50 µM in assay [4]; more than 50 µM in assay [5]; more than 50 µM in assay [6]. The TGI was more than 50 µM in assay [7], more than 47.4 µM in assay [8], more than 50 µM in [9] and more than 50 µM in assay [10].
For `CC/C=C\C/C=C\C[C@H](O)C/C=C1/C(=O)C=C[C@H]1C/C=C\CCC(=O)OC`, the GI50 is 2.78 µM in [1]; 6.01 µM in assay [2]; 2310 nM in assay [3]; 2.49 µM in assay [4]; more than 8.25 µM in [5]; 2260 nM in assay [6]. Besides, the GI50 was 2.06 µM in assay [7], 1.39 µM in assay [8], 3.74 µM in [9] and more than 8.25 µM in assay [10]. Besides, the TGI in assay [1] is more than 8.25 µM; in assay [2] it was more than 8.25 µM; in assay [3] it was 7.8 µM; in assay [4], more than 8.25 µM; in [5], more than 8.25 µM; in [6], more than 8.25 µM. Besides, the TGI was 6.67 µM in assay [7], 3.42 µM in assay [8], more than 8.25 µM in assay [9] and more than 8.25 µM in [10].
